Drawing on patent US20230339952A1, “MACROCYCLIC HETEROCYCLES AND USES THEREOF” (Kumquat Biosciences Inc., priority 2022, published 2023), this text covers ring closure, yield of all isomers, IC50 and bioavailability for six molecules.

Where two headings read alike, the source gives them in different places.

One data set deals with SOS1 (Homo sapiens (Human), UniProt Q07889). The data set can be described thus: Ras-SOS interaction assay (HTRF), K-Ras G13D utilized. The format is binding. On the technique in general: TR-FRET usually uses a lanthanide donor and a delayed reading to cut background.
Chain of SOS1 (Q07889 564-1049): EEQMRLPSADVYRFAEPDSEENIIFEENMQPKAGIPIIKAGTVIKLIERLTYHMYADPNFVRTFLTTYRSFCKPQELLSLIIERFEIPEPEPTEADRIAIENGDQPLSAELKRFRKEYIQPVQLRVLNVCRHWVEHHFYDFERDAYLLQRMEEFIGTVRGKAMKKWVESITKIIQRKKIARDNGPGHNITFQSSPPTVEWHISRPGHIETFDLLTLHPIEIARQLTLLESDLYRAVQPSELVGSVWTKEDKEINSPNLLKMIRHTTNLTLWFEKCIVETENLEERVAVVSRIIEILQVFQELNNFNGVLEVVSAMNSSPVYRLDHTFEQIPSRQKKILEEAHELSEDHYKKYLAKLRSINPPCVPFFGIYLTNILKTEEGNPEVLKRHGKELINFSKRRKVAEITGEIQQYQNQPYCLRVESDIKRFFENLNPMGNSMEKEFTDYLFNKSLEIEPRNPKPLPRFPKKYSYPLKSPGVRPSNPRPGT
For data set [1], the system named is NCI-H1975 (ATCC CRL-5908) cell line comprising an EGFR T790M L858R double mutation. Briefly: EGFR-SOS cellular inhibition assay (CellTiter-Glo cell proliferation). It is filed as cell-based. The settings on record: Homo sapiens.
Procedure: A CellTiter-Glo (CTG) luminescent based assay (Promega) is used to assess growth of the cells, as a measurement of the ability of the compounds herein to inhibit EGFR signaling in the cells. […] The day after plating, cells are treated with a dilution series (e.g., a 9 point 3-fold dilution series) of the compounds herein (e.g., approximately 125 μL final volume per well).
A short description of data set [2]: Mouse oral exposure (% F). The format is in vivo. The following applies: plasma, female CD-1 mice, 10 mg/kg oral vs 2 mg/kg IV, single dosing. How it is done:
A pharmacokinetic profile for a test compound is assessed by single dosing in female CD-1 mice. […] One set of animals is dosed intravenous (IV) with test compound, 2 mg/kg in 20% HP-beta-CD or 20% Captisol, pH adjusted to −5-6 by citric acid at 10 mL/kg. Time of blood sampling is 5 minutes, 15 minutes, 30 minutes, 90 minutes, 360 minutes, and 24 hours following IV dosing. […] Oral dosing solution concentration is 1 mg/mL test compound and 10 mL/kg. Time of blood sampling is 15 minutes, 30 minutes, 90 minutes, 180 minutes, 360 minutes and 24 hours following oral (po) dosing. Blood samples (˜0.1 mL/sample) are collected via submandibular facial vein and placed in tubes containing EDTA-K2 and stored on ice until centrifuged. The blood samples are centrifuged at approximately 6800 g for 6 minutes at 2-8° C. and the resulting plasma is separated and stored frozen at approximately −80° C. Plasma samples are analyzed using an Agilent Technologies 6430 Triple Quad LC/MS system, following the manufacturer instructions. All the analytes are detected with positive-mode electrospray ionization (ES+). […] Based on the time course sampling, an area under the curve is calculated for the oral dose group and the intravenous dose group. Percentage mouse bioavailability is calculated based on equation 6. […]

The subject of data set [3] is MIA PaCa-2 cells (K-Ras G12C). Briefly: Ras-SOS cellular growth inhibition assay (CellTiter-Glo). The following applies: Homo sapiens, MIA PaCa-2, 120 h, read-out: IC50 in inhibiting MIA PaCa-2 cell growth. For orientation: In ATP-based viability assays light output follows the ATP content of the culture.
Procedure: A CellTiter-Glo (CTG) luminescent based assay (Promega) is used to assess growth of the cells, as a measurement of the ability of the compounds herein to inhibit Ras signaling in the cells. […] The day after plating, cells are treated with a dilution series (e.g., a 9 point 3-fold dilution series) of the compounds herein (e.g., approximately 125 μL final volume per well). Cell viability can be monitored (e.g., approximately 5 days later) according to the manufacturer's recommended instructions, where the CellTiter-Glo reagent is added (e.g., approximately 65 μL), vigorously mixed, covered, and placed on a plate shaker (e.g., approximately for 20 min) to ensure sufficient cell lysis prior to assessment of luminescent signal. The IC50 values are determined using the four-parameter fit. The resulting IC50 value is a measurement of the ability of the compounds herein to reduce cell growth of Ras-driven cells as representative tumor cells.
Where [4] appears, read: K-Ras G13D, read-out: IC50 value against SOS1.
Setting [5] is: K-Ras G13D, read-out: SOS1 IC50.
Where [6] appears, read: comparative values (Table 3), read-out: SOS1 IC50.
Where [7] appears, read: 120 h, NCI-H1975 cell proliferation, approximately 5 days, read-out: H1975 IC50.
Where [8] appears, read: NCI-H1975, EGFR T790M L858R double mutation, read-out: IC50 in inhibiting growth of NCI-H1975 cell line.

As to `Cc1nc2c3cc(C4CCS(=O)(=O)CC4)c(=O)n(c3n1)CCCCC=CCN1CCC(CC1)C(F)(F)c1cccc(c1)[C@@H](C)N2`, the ring closure, yield of all isomers (from C=CCCCCn1c(=O)c(C2CCS(=O)(=O)CC2)cc2c(N[C@H](C)c3cccc(C(F)(F)C4CCN(CC=C)CC4)c3)nc(C)nc21, rcm bond, Grubbs II, DCM, 4.48 mM, 25.0 °C, 16.0 h) amounted to 64.2%.

`C[C@H]1Nc2ncnc3c2cc(C2CCS(=O)(=O)CC2)c(=O)n3CCCOCCCCN2CC(C2)CC(F)(F)c2cccc1c2` [Compound 176, (3R)-1^6-(1,1-dioxidotetrahydro-2H-thiopyran-4-yl)-5,5-difluoro-3-methyl-1^7,1^8-dihydro-12-oxa-2-aza-1(4,8)-pyrido[2,3-d]pyrimidina-7(3,1)-azetidina-4(1,3)-benzenacyclopentadecaphan-1^7-one]: the IC50 at SOS1 (setting [4]) is less than 50 nM; on SOS1 (setting [5]), less than 100 nM; on SOS1 (setting [6]), 7 nM; in data set [1] (setting [7]), less than 1000 nM; in data set [1] (setting [8]), less than 500 nM. Moreover, in data set [2], the bioavailability was not below 4%.

`C[C@H]1Nc2ncnc3c2cc(C2(C#N)CCS(=O)(=O)CC2)c(=O)n3CCCCCCCN2CCC(CC2)C(F)(F)c2cccc1c2F` [Compound 112, 4-((4R)-3^2,2,2-trifluoro-4-methyl-6^7-oxo-6^7,6^8-dihydro-5-aza-6(4,8)-pyrido[2,3-d]pyrimidina-1(4,1)-piperidina-3(1,3)-benzenacyclotridecaphane-6^6-yl)tetrahydro-2H-thiopyran-4-carbonitrile 1,1-dioxide]: the 50% inhibitory concentration (IC50) at SOS1 (setting [5]) was less than 100 nM; in data set [1] (setting [7]), less than 1000 nM. Also, under “from C[C@@H](Nc1ncnc2c1cc(C1(C#N)CCS(=O)(=O)CC1)c(=O)n2CCCCCCC=O)c1cccc(C(F)(F)C2CCNCC2)c1F, amine bond, NaBH3CN, MeOH, 0.73 mM, 25.0 °C, 16.5 h”, the ring closure, yield of all isomers is 28.2%.

Turning to `C[C@H]1Nc2ncnc3c2cc(C2(C#N)CC2)c(=O)n3CCCCCC=CCN2CCC(CC2)C(F)(F)c2cccc1c2`, the ring closure, yield of all isomers (from C=CCCCCCn1c(=O)c(C2(C#N)CC2)cc2c(N[C@H](C)c3cccc(C(F)(F)C4CCN(CC=C)CC4)c3)ncnc21, rcm bond, Grubbs II catalyst, DCM, 1.41 mM, 40.0 °C) came to 18.5%.

`COc1cc2nc(C)nc3c2cc1OCCOCCOCCOCCOCCNCc1ccccc1C1=CC=C(S1)[C@@H](C)N3` [Compound 56, (R)-5^7-methoxy-5^2,3-dimethyl-6,9,12,15,18-pentaoxa-4,21-diaza-5(4,6)-quinazolina-2(2,5)-thiophena-1(1,2)-benzenacyclodocosaphane]: the IC50 on SOS1 (setting [5]) lay in the range of 100 to 5000 nM. The molecule further registered a ring closure, yield of all isomers (from COc1cc2nc(C)nc(N[C@H](C)c3ccc(-c4ccccc4C=O)s3)c2cc1OCCOCCOCCOCCOCCN, amine bond, NaBH3CN, DCM, 28.4 mM, 25.0 °C, 16.0 h, 2 steps) of 59.3%.

In the case of `Cc1nc2c3cc(C4CCN(C(C)C)CC4)c(=O)n(c3n1)CCCC/C=C\CN1CCC(CC1)C(F)(F)c1cccc(c1)[C@@H](C)N2` [Compound 175, (4R,Z)-2,2-difluoro-6^6-(1-isopropylpiperidin-4-yl)-6^2,4-dimethyl-6^7,6^8-dihydro-5-aza-6(4,8)-pyrido[2,3-d]pyrimidina-1(4,1)-piperidina-3(1,3)-benzenacyclotridecaphan-11-en-6^7-one], the IC50 was less than 50 nM at SOS1 (setting [4]); less than 100 nM at SOS1 (setting [5]); 8 nM on SOS1 (setting [6]); less than 1000 nM in data set [1] (setting [7]); less than 500 nM in data set [1] (setting [8]); less than 1000 nM in data set [3]. For the same molecule, the bioavailability in data set [2] was not below 4%.

In general, IC50 refers to the point on the concentration scale where inhibition reaches its midpoint. What is called bioavailability is dose-corrected exposure relative to a reference, in per cent. Read a low bioavailability as poor availability.
